Measured values published in ChEMBL document CHEMBL1137529, “Syntheses and optimization of new GS39783 analogues as positive allosteric modulators of GABA B receptors” (Bioorg Med Chem Lett, 2007).

Columns and labels:
[1] = target: GABA-B receptor (Homo sapiens, UniProt O75899+Q9UBS5); assay: Activity at GABAB 1b/2 receptor expressed in CHO-K1 cells assessed as effect on GABA-induced [35S]GTP-gamma-S binding
[2] = Partition coefficient, log P of the compound; assay type: physicochemical; conditions: octanol/water
[3] = Solubility in water; assay type: physicochemical

Chain of GABA-B receptor (Q9UBS5 whole entry): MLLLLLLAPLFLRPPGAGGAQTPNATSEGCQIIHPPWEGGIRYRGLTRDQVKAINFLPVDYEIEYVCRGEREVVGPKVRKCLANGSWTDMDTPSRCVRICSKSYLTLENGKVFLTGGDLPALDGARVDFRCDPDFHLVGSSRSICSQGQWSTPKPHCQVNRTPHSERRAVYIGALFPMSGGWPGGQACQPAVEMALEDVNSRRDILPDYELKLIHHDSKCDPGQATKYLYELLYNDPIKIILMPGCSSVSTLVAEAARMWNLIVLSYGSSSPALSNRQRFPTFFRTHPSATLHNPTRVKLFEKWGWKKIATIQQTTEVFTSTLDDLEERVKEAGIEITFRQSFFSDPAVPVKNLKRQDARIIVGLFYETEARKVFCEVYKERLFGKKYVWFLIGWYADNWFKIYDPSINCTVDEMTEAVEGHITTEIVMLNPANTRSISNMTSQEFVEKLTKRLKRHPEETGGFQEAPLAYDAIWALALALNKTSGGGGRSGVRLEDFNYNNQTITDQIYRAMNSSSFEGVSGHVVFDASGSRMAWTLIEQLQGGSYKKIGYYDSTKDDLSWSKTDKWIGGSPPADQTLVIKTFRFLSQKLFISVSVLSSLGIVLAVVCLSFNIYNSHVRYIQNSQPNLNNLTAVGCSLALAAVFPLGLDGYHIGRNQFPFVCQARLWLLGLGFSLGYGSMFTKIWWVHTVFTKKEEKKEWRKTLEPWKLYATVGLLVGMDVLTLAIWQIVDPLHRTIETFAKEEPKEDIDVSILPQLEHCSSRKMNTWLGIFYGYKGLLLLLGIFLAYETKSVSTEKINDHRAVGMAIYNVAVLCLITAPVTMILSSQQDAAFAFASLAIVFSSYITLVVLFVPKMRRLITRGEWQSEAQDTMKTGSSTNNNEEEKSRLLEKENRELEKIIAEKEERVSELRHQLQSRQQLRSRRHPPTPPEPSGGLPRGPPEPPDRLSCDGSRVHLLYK
Chain of GABA-B receptor (O75899 whole entry): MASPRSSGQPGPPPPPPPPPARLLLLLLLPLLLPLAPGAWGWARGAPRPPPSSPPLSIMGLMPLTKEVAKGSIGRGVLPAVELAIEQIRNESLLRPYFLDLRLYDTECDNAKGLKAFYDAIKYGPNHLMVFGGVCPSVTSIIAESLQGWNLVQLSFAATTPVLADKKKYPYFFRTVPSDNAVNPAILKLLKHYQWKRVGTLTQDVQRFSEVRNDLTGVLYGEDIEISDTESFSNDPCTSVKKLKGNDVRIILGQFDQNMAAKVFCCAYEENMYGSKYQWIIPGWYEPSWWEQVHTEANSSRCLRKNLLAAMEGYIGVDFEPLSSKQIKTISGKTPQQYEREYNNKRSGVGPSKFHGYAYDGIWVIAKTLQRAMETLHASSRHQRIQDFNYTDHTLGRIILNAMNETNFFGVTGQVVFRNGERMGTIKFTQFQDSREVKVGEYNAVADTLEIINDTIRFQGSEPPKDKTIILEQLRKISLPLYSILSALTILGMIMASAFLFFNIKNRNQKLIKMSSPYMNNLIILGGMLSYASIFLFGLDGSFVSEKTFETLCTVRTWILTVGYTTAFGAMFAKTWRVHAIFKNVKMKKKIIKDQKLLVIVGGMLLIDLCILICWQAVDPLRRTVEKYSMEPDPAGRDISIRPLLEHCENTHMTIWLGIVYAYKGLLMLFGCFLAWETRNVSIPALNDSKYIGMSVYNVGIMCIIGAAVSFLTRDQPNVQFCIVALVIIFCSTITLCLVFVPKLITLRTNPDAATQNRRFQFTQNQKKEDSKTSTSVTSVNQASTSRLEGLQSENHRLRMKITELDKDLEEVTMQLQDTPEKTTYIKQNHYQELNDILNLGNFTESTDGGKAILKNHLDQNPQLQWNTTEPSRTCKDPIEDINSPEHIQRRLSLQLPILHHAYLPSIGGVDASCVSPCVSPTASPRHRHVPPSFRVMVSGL

Compound	EC50 [1] [nM]	logP [2]	solubility [3] [µg/mL]
Cc1ncc(-c2ccc(C(F)(F)F)cc2)c(NC2C3CC4CC(C3)CC2C4)n1 (configuration not stated)		> 5.9	< 10
Cc1ncc(-c2ccc(C(F)(F)F)cc2)c(NC23CC4CC(CC(C4)C2)C3)n1		> 5.9	< 10
COc1ncc(-c2ccc(C(F)(F)F)cc2)c(N[C@@H]2C[C@@H]3CC[C@H]2C3)n1	2040		

More lines, now with the values ahead:

EC50 [1] [nM]	logP [2]	solubility [3] [µg/mL]	Compound
1660			Cc1ncc(-c2ccc(C(F)(F)F)cc2)c(NC2CCCCCC2)n1
4570			Cc1ncc(-c2ccc(OC(F)(F)F)cc2)c(NC2CCCC2)n1
